{"source": "patent US20030125285A1", "about": "“Method of examining efficacy of therapy with nucleic acid” (priority 2001, published 2003)", "key": {"[1]": {"target": "T1, protein of SEQ ID NO: 2 (human TAR RNA binding protein 2, TRBP2) (Homo sapiens, UniProt Q15633)", "T1 construct": "made in house", "T1 sequence (Q15633 1-366)": "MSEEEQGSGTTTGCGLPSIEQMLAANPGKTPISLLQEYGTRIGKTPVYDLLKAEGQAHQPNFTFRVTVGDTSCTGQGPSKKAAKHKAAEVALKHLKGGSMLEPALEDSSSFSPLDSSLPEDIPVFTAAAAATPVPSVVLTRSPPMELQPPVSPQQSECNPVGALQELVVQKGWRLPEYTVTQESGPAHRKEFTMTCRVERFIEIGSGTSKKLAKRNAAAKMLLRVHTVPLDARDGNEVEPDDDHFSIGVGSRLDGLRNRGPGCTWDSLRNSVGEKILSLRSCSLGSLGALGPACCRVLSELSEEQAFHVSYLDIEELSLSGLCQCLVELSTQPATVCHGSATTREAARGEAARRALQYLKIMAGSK", "assay": "Detection of binding of radio-labeled poly(I)•poly(C) to phage cDNA library proteins on nitrocellulose membrane", "conditions": "[32P]-poly(I)•poly(C) 1 ng/ml-1 μg/ml, chain length 100-500 bp, 42° C., 5-6 hours", "procedure": "(§1) Detection of Binding Ability to Proteins of SEQ ID NO: 1-3\n(§2) (1) Each protein was synthesized by plating phages containing cDNA on a petri dish using human HeLa 5′-STRETCH PLUS cDNA library.\n(§3) (2) The synthesized protein was transferred to nitrocellulose membrane.\n(§4) (3) To the nitrocellulose membrane was added the following test solution containing poly(I)•poly(C) (chain length 100-500 bp) radio-labeled with [γ-^32P]ATP, and subjected to hybridization at 42° C., for 5-6 hours.\n(§5) 1 ng/ml-1 μg/ml [^32P]-poly(I)•poly(C)\n(§6) The nucleotide sequence of cDNA corresponding to the screened protein was determined with a sequencer to identify the screened protein."}, "[2]": {"target": "T2, protein of SEQ ID NO: 1 (AK002169) (Homo sapiens, UniProt Q96SI9)", "T2 construct": "made in house", "T2 sequence (Q96SI9 183-672)": "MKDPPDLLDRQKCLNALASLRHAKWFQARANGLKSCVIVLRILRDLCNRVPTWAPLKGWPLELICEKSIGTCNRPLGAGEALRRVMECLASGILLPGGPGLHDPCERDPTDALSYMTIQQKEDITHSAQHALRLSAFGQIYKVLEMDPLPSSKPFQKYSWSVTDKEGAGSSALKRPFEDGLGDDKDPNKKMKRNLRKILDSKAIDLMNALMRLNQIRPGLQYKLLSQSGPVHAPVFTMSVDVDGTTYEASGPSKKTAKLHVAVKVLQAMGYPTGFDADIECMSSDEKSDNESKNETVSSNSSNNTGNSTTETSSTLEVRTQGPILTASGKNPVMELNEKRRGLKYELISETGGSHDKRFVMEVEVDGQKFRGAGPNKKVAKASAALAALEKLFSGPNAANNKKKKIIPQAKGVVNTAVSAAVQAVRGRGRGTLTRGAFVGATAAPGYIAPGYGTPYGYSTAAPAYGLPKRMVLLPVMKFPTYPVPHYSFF", "assay": "Detection of binding of radio-labeled poly(I)•poly(C) to phage cDNA library proteins on nitrocellulose membrane", "conditions": "[32P]-poly(I)•poly(C) 1 ng/ml-1 μg/ml, chain length 100-500 bp, 42° C., 5-6 hours", "procedure": "as §1, §2, §3, §4, §5, §6"}, "[3]": {"target": "T3, protein of SEQ ID NO: 3 (human TRAL) (Homo sapiens, UniProt P14625)", "T3 construct": "made in house", "T3 sequence (P14625 22-803)": "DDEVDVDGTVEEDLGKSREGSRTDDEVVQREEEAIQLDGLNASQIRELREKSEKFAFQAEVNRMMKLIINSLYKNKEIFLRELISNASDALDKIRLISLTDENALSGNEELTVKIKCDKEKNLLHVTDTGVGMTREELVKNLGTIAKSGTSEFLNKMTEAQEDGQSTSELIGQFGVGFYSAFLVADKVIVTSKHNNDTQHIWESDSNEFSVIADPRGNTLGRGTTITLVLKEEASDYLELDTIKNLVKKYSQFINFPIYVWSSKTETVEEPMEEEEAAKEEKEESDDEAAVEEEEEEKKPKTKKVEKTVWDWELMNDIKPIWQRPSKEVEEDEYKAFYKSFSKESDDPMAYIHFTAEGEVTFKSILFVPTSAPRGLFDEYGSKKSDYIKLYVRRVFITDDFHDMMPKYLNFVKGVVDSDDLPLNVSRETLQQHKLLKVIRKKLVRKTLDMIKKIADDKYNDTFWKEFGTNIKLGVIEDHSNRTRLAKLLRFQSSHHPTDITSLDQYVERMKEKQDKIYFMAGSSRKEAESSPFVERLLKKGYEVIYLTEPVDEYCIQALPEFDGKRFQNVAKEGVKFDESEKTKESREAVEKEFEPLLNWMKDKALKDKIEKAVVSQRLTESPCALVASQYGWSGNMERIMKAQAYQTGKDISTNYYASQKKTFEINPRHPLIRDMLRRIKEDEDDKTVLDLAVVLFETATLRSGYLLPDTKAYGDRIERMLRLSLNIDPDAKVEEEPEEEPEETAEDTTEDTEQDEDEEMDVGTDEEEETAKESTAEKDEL", "assay": "Detection of binding of radio-labeled poly(I)•poly(C) to phage cDNA library proteins on nitrocellulose membrane", "conditions": "[32P]-poly(I)•poly(C) 1 ng/ml-1 μg/ml, chain length 100-500 bp, 42° C., 5-6 hours", "procedure": "as §1, §2, §3, §4, §5, §6"}, "HeLaS3 cancer cells": {"system": "HeLaS3 cancer cells", "conditions": "Cancer Research, 59, pp. 4325-4333 (1999); cited from earlier work"}, "SW620 cancer cells": {"system": "SW620 cancer cells", "conditions": "Cancer Research, 59, pp. 4325-4333 (1999); cited from earlier work"}, "A431 cancer cells": {"system": "A431 cancer cells", "conditions": "Cancer Research, 59, pp. 4325-4333 (1999); cited from earlier work"}, "HeLa cancer cells": {"system": "HeLa cancer cells", "conditions": "Cancer Research, 59, pp. 4325-4333 (1999); cited from earlier work"}}}
{"substance": "polyinosinic acid-polycytidylic acid [poly(I)•poly(C)]", "values": [{"measurement": "binding to protein of SEQ ID NO: 2", "setting": "[1]", "value": "bound"}, {"measurement": "binding to protein of SEQ ID NO: 1", "setting": "[2]", "value": "bound"}, {"measurement": "binding to protein of SEQ ID NO: 3", "setting": "[3]", "value": "bound"}, {"measurement": "efficacy against cancer cells", "setting": "HeLaS3 cancer cells", "value": "efficacious"}, {"measurement": "efficacy against cancer cells", "setting": "SW620 cancer cells", "value": "inefficacious"}, {"measurement": "efficacy against cancer cells", "setting": "A431 cancer cells", "value": "efficacious"}, {"measurement": "efficacy against cancer cells", "setting": "HeLa cancer cells", "value": "inefficacious"}]}
